Laboratory results as given in a melting point compilation (Tetko et al.; mined from patent text by program, amines drawn as free bases though some values may be those of a salt).

SMILES | melting point [°C]
NC(=O)C(Nc1ccccc1[N+](=O)[O-])c1c(Cl)cccc1Cl (centres undefined) | 182
Cc1cc2c(cc1C(=O)N=C(N)N)S(=O)(=O)CC2(C)O (centres undefined) | 243 to 245
CCOC(=O)C1=C(C)NC(C)=C2C(=O)Oc3cccnc3C12 (centres undefined) | 100 to 150
COc1cccc2c1C1=C(CC2)NC(=O)CC1 | 190
O=C(O)C1=Cc2cc(F)cc(F)c2OC1C(F)(F)F (centres undefined) | 207 to 211
Brn1nnc2c3scnc3ccc21 | 282 to 285
COc1cc(OC)c2c(=O)[nH]c(-c3ccc(OCCO)c(-c4cccc(S(C)=O)c4)n3)nc2c1 (centres undefined) | 272 to 273
CC(C)S(=O)(=O)C1=CC=CN(Cl)C1 | 82 to 84
COC(=O)c1ccc(COc2ccc3cc(-c4ccc(-c5ccccc5)[nH]4)ccc3c2)c(C(=O)OC)c1 | 203 to 205
CC(C)[C@H](NC(=O)OCc1ccccc1)C(=O)NC(Cc1ccccc1)C(O)C(Cc1ccccc1)NC(=O)[C@@H](NC(=O)OCc1ccccn1)C(C)C (some centres undefined) | 194 to 195
O=C(c1ccccc1)c1c(F)ccc([N+](=O)[O-])c1F | 75.8 to 77.2
O=C(O)c1cc(=O)c(-c2ccc(OCc3ccccc3)c(OCc3ccccc3)c2)co1 | 206 to 208
CCOc1ccc(OC)c2c1CCC=C2 | 59 to 60
N#Cc1ccc(-c2ccc(S(=O)(=O)CC(CSc3ccccc3)C(=O)O)cc2)cc1 (centres undefined) | 243 to 247
O=[N+]([O-])c1cc(-c2cccnc2)ccc1O | > 300
COc1cc(C(C)C)c2c(c1)S(=O)(=O)N(COc1cc(C(F)(F)F)nn1-c1ccc(Cl)cc1)C2=O | 160 to 161
c1ccc(Sc2cc(Sc3ccccc3)cc(Sc3ccccc3)c2)cc1 | 40 to 41
CC1(C)C(C=C2CC2(F)F)C1C(=O)O (centres undefined) | 78.9
CCOC1(C)Oc2cccc(OC(=O)NC)c2O1 (centres undefined) | 97 to 98.5
COC(=O)[C@H](Cc1ccc(NC(=O)c2c(C)cccc2Cl)cc1)NC(=O)OC(C)(C)C | 154 to 157
CC(=NO)c1ccnc(N(C)C)c1 | 145 to 148
CC(C)(C)C(=O)NNc1ccc([N+](=O)[O-])cc1Br | 145
O=C1OCCC1C(=O)c1ccccc1[N+](=O)[O-] (centres undefined) | 75 to 76
CCCN(CCC)Cc1nc(-c2ncn3c2[C@@H]2CCN2C(=O)c2ccccc2-3)no1 | 208 to 210
Cc1ccc(NC(=O)c2cccc([N+](=O)[O-])c2)cc1 | 160 to 162

SMILES | melting point [°C]
C#CCOc1cc(Oc2cccc(Cl)c2)ncn1 | 71.6
CCCc1c(OCCCCCCc2cccc(OCCCCCC(=O)O)c2CCC(=O)O)ccc2c1OCCC2=O | 86 to 88
CCCN1C(=O)C(C)(C)N=C(c2ccccc2F)c2cc([N+](=O)[O-])cc(Cl)c21 | 178 to 179
O=S1(=O)c2ccccc2N(c2ccccn2)c2ccccc21 | 184 to 188
CC(C)(C)c1ccc(NC(=O)Nc2ccc(Oc3cc(NCc4ccccc4)ncn3)cc2)cc1 | 118 to 120
O=C1NC2CCC1C(O)C2 (centres undefined) | 115 to 120
CC(=O)Nc1ccc(C(NC(c2ccccc2)c2ccccc2)P(O)O)cc1 (centres undefined) | 196 to 200
CCCCCCc1nc(C(C)=O)c[nH]1 | 104 to 106
O=C(C=CC(F)(F)F)Nc1ccc2ncnc(Nc3cccc(Br)c3)c2c1 | 273 to 278
CC1=NC(C)(C)SC1=NOC(=O)N(C)C | 92 to 95
Cc1c(C)c(N2C(=O)c3ccccc3C2=O)c(C)c2c1OC(C)(C)C2c1ccc(C(C)C)cc1 (centres undefined) | 180 to 181
Cc1cc(CCCOc2c(C)cc(-c3noc(CC(F)(F)F)n3)cc2C)on1 | 84 to 85
CCN(C(=O)Cl)c1ccc2c(c1)OCO2 | 68 to 69
Cc1cc(=O)[nH]c2ccc(C(O)(C(F)(F)F)C(F)(F)F)cc12 | 157 to 158
CCONC(=O)Cc1ccc2cc(OC)ccc2c1 | 196 to 197
COc1nc(NC(=O)NS(=O)(=O)c2cc(Cl)ccc2C(=O)OC(C)C)nc(C(F)(F)F)n1 | 160 to 163
CC(C)(C)OCCOc1cc(NC(=O)OC(C)(C)C)c(NC(=O)CC(=O)c2cccc(-n3ccnc3)c2)cc1C#Cc1ccc(F)cc1 | 62 to 65
CCCC[C@H](NC(=O)[C@H](CC(C)C)NC(=O)c1ccccc1C)C(=O)CSCc1ccco1 | 118 to 119
CCOc1sc(C)nc1S(N)(=O)=O | 118 to 120
COc1ccc(-n2cccc2-c2ccc(S(N)(=O)=O)cc2)cc1 | 112 to 114
C[C@H](O)C(=O)N[C@@H]1C(=O)Nc2c(F)cccc2O[C@@H]1C | 221 to 225
CCOC(=O)c1c(C(F)(F)F)nc(C(F)F)c(C(=O)OC)c1OC(C)C | 29 to 31
O=C1c2ccccc2C(=O)N1Cc1ncc(C(F)(F)F)cc1Cl | 145 to 146
Cc1ccc(N(C)C(=O)Cc2ccccc2)s1 | 77 to 79
CC1CC2C3CC(F)C4=CC(=O)C=CC4(C)C3C(=O)CC2(C)C1C(=O)COC(=O)C(C)(C)C (centres undefined) | 226 to 227

The next lines start with the values.

melting point [°C] | SMILES
91 to 92 | CC(=O)OC(CN(Cc1ccccc1)Cc1ccccc1)c1ccc2c(c1)CCN2C(C)=O (centres undefined)
115 to 117 | O=C(NC1=CCN(CCc2ccccc2)CC1)c1ccccc1
142 to 145 | CCCc1nc2c(N)nc3cc(OCCOCc4ccccc4)ccc3c2s1
93 to 96 | CCC(=O)NCCC1CCc2cc(F)c(O)cc21 (centres undefined)
59 to 62 | O=C(NCCN1CCOc2ccc(O)cc21)c1ccco1
64 | COC(=O)CCCc1cc2nc(Cl)ccc2n1S(=O)(=O)c1cccc2cccnc12
121 to 123 | CCCCn1c(=O)c2c(N3CCN(C)CC3)cc(Cl)cc2n(Cc2ccccc2)c1=O
295 to 300 | CC1=N/C(=C\c2c[nH]c3ncc(Cl)cc23)C(=O)N1C
159 to 160 | O=c1c(-c2ccccc2)c[nH]n1-c1ncccn1
119 to 121 | CC(C)(c1ccccc1)c1ccc(O)c(-n2nc3ccccc3n2)c1
236 to 238 | Cc1nc2cc(NC(=O)c3cc4cccnc4n3-c3ccncc3)ccc2s1
130 to 131 | OC(CCN1CCN(c2ccc(F)cc2)CC1)c1cnn2c1CCCC2 (centres undefined)
222 to 223 | Cc1ncc(C#N)c(Nc2ccc3[nH]ccc3c2C)c1I
180 | CN1CCOC(C2=C(C#N)C(c3cccc(C#N)c3Br)c3c[nH]nc3N2)C1 (centres undefined)
104 to 105 | N=C(N)c1c[nH]c2ccc(CCNC(=O)c3ccc(-c4ccnc(OCCN5CCCC5)n4)cc3)cc12
267 to 268 | COc1cc2c(c(Cl)c1Cl)S(=O)(=O)C(c1ccccc1F)=C2
80 to 81 | CCCCSCC(=O)c1ccc2c(c1)n(C)c(=O)n2C
188 to 190 | N#Cc1cnc(-c2ccccc2OCC2CC2)[nH]c1=O
132 | Cc1c(-c2cccc(F)c2)nc2n1CCc1ccccc1C2OC1CCN(C)CC1 (centres undefined)
182 to 184 | CCN1CCN(Cc2nc(-c3ccc4c(c3)Nc3ccccc3S4)cs2)CC1
60 | Cc1nnc(NCCCN2CCN(C)CC2)c2cc3ccccn3c12
73 to 74.5 | Cn1cc(Cl)c2cccc(C(=O)c3ccccc3)c21
132 to 133 | NC(=O)c1cccc(OCCCCCn2cnc3c(Cl)ncnc32)c1
138 to 140 | CC1(C)C2CCC1(CS(=O)(=O)N1CCC3(C=Cc4ccccc43)CC1)C(O)(CC(=O)O)C2 (centres undefined)
104 to 106 | Cc1nc2ccc3c(c2o1)C(CCNC(=O)C(F)(F)F)CC3 (centres undefined)

melting point [°C] | SMILES
193 to 196 | Cc1cc(C)c(/C=C2\C(=O)N(C(=O)CNC(=O)OCc3ccccc3)c3ccccc32)[nH]1
150 to 151 | COc1ccc(CNc2nc(Cl)nc(Cl)c2C(=O)O)cc1Cl
193 to 195 | CCCCc1nc2c(N)nc3ccccc3c2n1CCCNC(=O)N1CCOCC1
104 to 106 | CC(C)(C)OC(=O)COCCC1CCN(c2cnc(-c3ccccc3)c(-c3ccccc3)n2)CC1
79 to 80 | Cc1ccc(NCc2ccc(N(C)C)cc2)c(C)c1
142 to 144 | CCOC(=O)NN(C)c1cc(C)c(-c2cccc([N+](=O)[O-])c2)nn1
256 to 257 | O=C(c1ccco1)N1CCc2cc(S(=O)(=O)n3cc(-c4ccccc4)[nH]c3=O)ccc21
142 to 144 | COc1cc2c(cc1F)C1(CO2)C(=O)N(Cc2ccccn2)c2ccccc21 (centres undefined)
156 | COc1ccc(C(=O)CC2CCN(CCn3c(=O)[nH]c4ccccc43)CC2)cc1
233 to 235 | COc1cc(NS(=O)(=O)c2ccc(N3CCNC3=O)cc2)cc(OC)c1OC
177 to 178 | OCc1c2c(nn1-c1ccc(F)cc1)CCCCC2
126 to 127 | CC(=O)OCCc1sc2nc(=NS(=O)(=O)c3ccc(C)cc3)sn2c1-c1ccc2c(c1)CCCC2
67 to 68.5 | c1ccc(CN2CCC3(CC2)OCc2ccccc23)cc1
195 | CCN1CC(N(CCN2CCCC2)S(=O)(=O)c2ccc(Nc3nccc(Nc4ccc(F)c(C)c4)n3)cc2)C1
260 to 264 | O=C(CCNc1c(C(=O)O)[nH]c2cc(Cl)ccc12)c1ccc(F)c(F)c1
132 to 134 | O=S(=O)(Cc1ccccc1)c1cccc2c1ccn2-c1ccnc(N[C@H]2CC[C@H](O)CC2)n1
162 to 164 | CC(C)n1cnc2c(NCc3cc(O)ccc3O)nc(NC[C@@H](C)O)nc21
209 to 210 | Cc1c(C#N)sc2nc(-c3ccc(Cl)cc3)nc(N3CCN(C)CC3)c12
134 to 136 | CCc1ccc2ncc([N+](=O)[O-])c(Nc3ccccc3Cl)c2c1
169 to 171 | CCCCC(CC)C(=O)Nc1ccc2c(c1)c(Cc1ccc(C(=O)NS(=O)(=O)c3ccccc3)cc1OC)cn2C (centres undefined)
236 | Cc1ccn2c(=O)c(CCN3CCC(c4c[nH]c5ccccc45)CC3)c(C)nc2c1
194 to 196 | O=C1Nc2cc(C(F)(F)F)ccc2N2CCN(CCc3ccccn3)CC12 (centres undefined)
176 to 178 | COc1ccc(-n2cc(C(=O)O)c(C)n2)cc1
144 to 145 | COc1ccc(CC(=O)NCCc2cc3c(cc2C)CCC3)cc1OC
